Tested on: Aβ42
Assay: In vitro cell screening assay in H4 cells expressing human APP751: Aβ42 by sandwich ELISA
Assay type: cell-based
Details: Homo sapiens, compounds 0.003-10 μM, incubated overnight (16-18 h), sandwich ELISA of supernatant
In short: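 Secreted Aβ42 measured by sandwich ELISA, C-terminal-specific capture and 4G8-HRP detection, TMB read at 450 nm, from supernatants of APP751-expressing H4 cells exposed overnight (16-18 h) to 0.003-10 μM compound in Pro293 medium, 0.33% DMSO. Data scaled between DMSO and DAPT controls; EC50 from variable-slope nonlinear regression.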

| EC50 [nM] | Structure (SMILES) |
| --- | --- |
| 38.4 | COc1nc(C2=NOC[C@H](c3cc4ccccc4o3)N2)ccc1-n1cnc(C)c1 [Example 4, (R)-5-(Benzofuran-2-yl)-3-(6-methoxy-5-(4-methyl-1H-imidazol-1-yl)pyridin-2-yl)-5,6-dihydro-4H-1,2,4-oxadiazine] |

Same assay, conditions: compounds 0.003-10 μM, incubated overnight (16-18 h), sandwich ELISA of supernatant

| EC50 [nM] | Structure (SMILES) |
| --- | --- |
| 709 | COc1nc(C2=NOCC(c3cccc(OC(F)(F)F)c3)N2)ccc1-n1cnc(C)c1 (single isomer, unassigned; (-)) [Example 242A, (−)-3-(6-methoxy-5-(4-methyl-1H-imidazol-1-yl)pyridin-2-yl)-5-(3-(trifluoromethoxy)phenyl)-5,6-dihydro-4H-1,2,4-oxadiazine] |
| 250 | COc1nc(C2=NOCC(c3ccc(C4CC4)c(Cl)c3)N2)ccc1-n1cnc(C)c1 (single isomer, unassigned; (-)) [Example 243A, (−)-5-(3-chloro-4-cyclopropylphenyl)-3-(6-methoxy-5-(4-methyl-1H-imidazol-1-yl)pyridin-2-yl)-5,6-dihydro-4H-1,2,4-oxadiazine] |
| 668 | COc1nc(C2=NOCC(c3cccc(Cl)c3)N2)ccc1-n1cnc(C)c1 (single isomer, unassigned; (-)) [Example 244A, (−)-5-(3-chlorophenyl)-3-(6-methoxy-5-(4-methyl-1H-imidazol-1-yl)pyridin-2-yl)-5,6-dihydro-4H-1,2,4-oxadiazine] |
| 554 | COc1nc(C2=NOCC(c3cn(C)c4ccc(C#N)cc34)N2)ccc1-n1cnc(C)c1 (single isomer, unassigned; (-)) [Example 245A, (−)-3-(3-(6-methoxy-5-(4-methyl-1H-imidazol-1-yl)pyridin-2-yl)-5,6-dihydro-4H-1,2,4-oxadiazin-5-yl)-1-methyl-1H-indole-5-carbonitrile] |
| 576 | COc1nc(C2=NOCC(C3Cc4ccccc4C3)N2)ccc1-n1cnc(C)c1 (single isomer, unassigned; (-)) [Example 246A, (−)-5-(2,3-dihydro-1H-inden-2-yl)-3-(6-methoxy-5-(4-methyl-1H-imidazol-1-yl)pyridin-2-yl)-5,6-dihydro-4H-1,2,4-oxadiazine] |
| 79.2 | COc1nc(C2=NOCC(c3cn(C)c4cccc(C#N)c34)N2)ccc1-n1cnc(C)c1 (single isomer, unassigned; (-)) [Example 247B, (−)-3-(3-(6-methoxy-5-(4-methyl-1H-imidazol-1-yl)pyridin-2-yl)-5,6-dihydro-4H-1,2,4-oxadiazin-5-yl)-1-methyl-1H-indole-4-carbonitrile] |
| 474 | COc1nc(C2=NOCC(c3ccc4c(c3)CCC4)N2)ccc1-n1cnc(C)c1 (single isomer, unassigned; (-)) [Example 248A, (−)-5-(2,3-dihydro-1H-inden-5-yl)-3-(6-methoxy-5-(4-methyl-1H-imidazol-1-yl)pyridin-2-yl)-5,6-dihydro-4H-1,2,4-oxadiazine] |
| 429 | COc1nc(C2=NOCC(c3cn(C)c4cc(C#N)ccc34)N2)ccc1-n1cnc(C)c1 (single isomer, unassigned; (-)) [Example 249A, (−)-3-(3-(6-methoxy-5-(4-methyl-1H-imidazol-1-yl)pyridin-2-yl)-5,6-dihydro-4H-1,2,4-oxadiazin-5-yl)-1-methyl-1H-indole-6-carbonitrile] |
| 202 | COc1ccc2c(c1)c(C1CON=C(c3ccc(-n4cnc(C)c4)c(OC)n3)N1)cn2C (single isomer, unassigned; (-)) [Example 250A, (−)-5-(5-methoxy-1-methyl-1H-indol-3-yl)-3-(6-methoxy-5-(4-methyl-1H-imidazol-1-yl)pyridin-2-yl)-5,6-dihydro-4H-1,2,4-oxadiazine] |
| 158 | COc1nc(C2=NOCC(c3cn(C)c4cccc(OC)c34)N2)ccc1-n1cnc(C)c1 (single isomer, unassigned; (-)) [Example 252A, (−)-5-(4-methoxy-1-methyl-1H-indol-3-yl)-3-(6-methoxy-5-(4-methyl-1H-imidazol-1-yl)pyridin-2-yl)-5,6-dihydro-4H-1,2,4-oxadiazine] |
| 148 | COc1nc(C2=NOCC(c3cn(C)c4cc(Cl)cc(OC)c34)N2)ccc1-n1cnc(C)c1 (single isomer, unassigned; (-)) [Example 254A, (−)-5-(6-chloro-4-methoxy-1-methyl-1H-indol-3-yl)-3-(6-methoxy-5-(4-methyl-1H-imidazol-1-yl)pyridin-2-yl)-5,6-dihydro-4H-1,2,4-oxadiazine] |
| 70.4 | COc1cc2c(cc1Cl)c(C1CON=C(c3ccc(-n4cnc(C)c4)c(OC)n3)N1)cn2C (single isomer, unassigned; (-)) [Example 255A, (−)-5-(5-chloro-6-methoxy-1-methyl-1H-indol-3-yl)-3-(6-methoxy-5-(4-methyl-1H-imidazol-1-yl)pyridin-2-yl)-5,6-dihydro-4H-1,2,4-oxadiazine] |
| 2590 | COc1nc(C2=NOCC(c3cn(C)c4cc(S(C)(=O)=O)ccc34)N2)ccc1-n1cnc(C)c1 (single isomer, unassigned; (-)) [Example 256A, (−)-3-(6-methoxy-5-(4-methyl-1H-imidazol-1-yl)pyridin-2-yl)-5-(1-methyl-6-(methylsulfonyl)-1H-indol-3-yl)-5,6-dihydro-4H-1,2,4-oxadiazine] |
| 120 | COc1nc(C2=NOCC(c3cn(C)c4cc(F)c(C)cc34)N2)ccc1-n1cnc(C)c1 (single isomer, unassigned; (-)) [Example 257A, (−)-5-(6-fluoro-1,5-dimethyl-1H-indol-3-yl)-3-(6-methoxy-5-(4-methyl-1H-imidazol-1-yl)pyridin-2-yl)-5,6-dihydro-4H-1,2,4-oxadiazine] |
| 154 | COc1ccc2c(C3CON=C(c4ccc(-n5cnc(C)c5)c(OC)n4)N3)cn(C)c2c1 (single isomer, unassigned; (-)) [Example 258A, (−)-5-(6-methoxy-1-methyl-1H-indol-3-yl)-3-(6-methoxy-5-(4-methyl-1H-imidazol-1-yl)pyridin-2-yl)-5,6-dihydro-4H-1,2,4-oxadiazine] |
| 2460 | COc1nc(C2=NOCC(c3cc4cc(C(F)(F)F)ccc4o3)N2)ccc1-n1cnc(C)c1 (single isomer, unassigned; (-)) [Example 259A, (−)-3-(6-methoxy-5-(4-methyl-1H-imidazol-1-yl)pyridin-2-yl)-5-(5-(trifluoromethyl)benzofuran-2-yl)-5,6-dihydro-4H-1,2,4-oxadiazine] |
| 2320 | COc1nc(C2=NOCC(c3cc4ccc(C(F)(F)F)cc4o3)N2)ccc1-n1cnc(C)c1 (single isomer, unassigned; (-)) [Example 260A, (−)-3-(6-methoxy-5-(4-methyl-1H-imidazol-1-yl)pyridin-2-yl)-5-(6-(trifluoromethyl)benzofuran-2-yl)-5,6-dihydro-4H-1,2,4-oxadiazine] |
| 21.2 | COc1cc(Cl)c2c(C3CON=C(c4ccc(-n5cnc(C)c5)c(OC)n4)N3)cn(C)c2c1 (single isomer, unassigned; (-)) [Example 261B, (−)-5-(4-chloro-6-methoxy-1-methyl-1H-indol-3-yl)-3-(6-methoxy-5-(4-methyl-1H-imidazol-1-yl)pyridin-2-yl)-5,6-dihydro-4H-1,2,4-oxadiazine] |
| > 3000 | COc1nc(C2=NOCC(c3ccc(C(F)(F)F)c(Cl)c3)N2)ccc1-n1cnc(C)c1 (single isomer, unassigned; (-)) [Example 262A, (−)-5-(3-chloro-4-(trifluoromethyl)phenyl)-3-(6-methoxy-5-(4-methyl-1H-imidazol-1-yl)pyridin-2-yl)-5,6-dihydro-4H-1,2,4-oxadiazine] |
| 321 | COc1nc(C2=NOCC(c3cn(C)c4ncc(Cl)cc34)N2)ccc1-n1cnc(C)c1 (single isomer, unassigned; (-)) [Example 264A, (−)-5-(5-chloro-1-methyl-1H-pyrrolo[2,3-b]pyridin-3-yl)-3-(6-methoxy-5-(4-methyl-1H-imidazol-1-yl)pyridin-2-yl)-5,6-dihydro-4H-1,2,4-oxadiazine] |
| 450 | COc1nc(C2=NOCC(c3cn(C)c4ncc(C5CC5)cc34)N2)ccc1-n1cnc(C)c1 (single isomer, unassigned; (-)) [Example 266A, (−)-5-(5-cyclopropyl-1-methyl-1H-pyrrolo[2,3-b]pyridin-3-yl)-3-(6-methoxy-5-(4-methyl-1H-imidazol-1-yl)pyridin-2-yl)-5,6-dihydro-4H-1,2,4-oxadiazine] |
| > 3000 | COc1nc(C2=NOCC(c3cc(F)c(Cl)c(F)c3)N2)ccc1-n1cnc(C)c1 (single isomer, unassigned; (-)) [Example 267A, (−)-5-(4-chloro-3,5-difluorophenyl)-3-(6-methoxy-5-(4-methyl-1H-imidazol-1-yl)pyridin-2-yl)-5,6-dihydro-4H-1,2,4-oxadiazine] |
| 1440 | COc1nc(C2=NOCC(c3ccc(C(C)(C)O)cc3)N2)ccc1-n1cnc(C)c1 (single isomer, unassigned; (-)) [Example 268A, (−)-2-(4-(3-(6-methoxy-5-(4-methyl-1H-imidazol-1-yl)pyridin-2-yl)-5,6-dihydro-4H-1,2,4-oxadiazin-5-yl)phenyl)propan-2-ol] |
| > 3000 | COc1nc(C2=NOCC(c3cnc4ccc(Cl)cn34)N2)ccc1-n1cnc(C)c1 (single isomer, unassigned; (-)) [Example 269A, (−)-5-(6-chloroimidazo[1,2-a]pyridin-3-yl)-3-(6-methoxy-5-(4-methyl-1H-imidazol-1-yl)pyridin-2-yl)-5,6-dihydro-4H-1,2,4-oxadiazine] |
| 418 | COc1nc(C2=NOCC(c3ccc(Cl)c(C(F)F)c3)N2)ccc1-n1cnc(C)c1 (single isomer, unassigned; (-)) [Example 270A, (−)-5-(4-chloro-3-(difluoromethyl)phenyl)-3-(6-methoxy-5-(4-methyl-1H-imidazol-1-yl)pyridin-2-yl)-5,6-dihydro-4H-1,2,4-oxadiazine] |
